Series [1] can be described thus: Microsome stability study. The following applies: for half-life at 2 μM / microsomal CLint at 2 μM / CLint scaled at 2 μM: CD-1, pH 7.4; for half-life at 2 μM / microsomal CLint at 2 μM: male mouse liver microsomes 0.5 mg/mL, NADPH; for CLint scaled at 2 μM: male, read-out: Scaled-up CLint; for CLint scaled at 2 μM / Predicted hepatic CL: mouse liver microsomes. The format is in vitro ADME, mouse. The method, then: Pooled CD-1 mouse liver microsomes at 0.5 mg/mL were pre-incubated in phosphate buffer (100 mM, pH 7.4) containing 1 mM NADPH and 3 mM MgCl2 in a 96-well plate for 5 minutes at 37° C. Ultra-pure water was added instead of NADPH in the negative control group to exclude the misleading factor that resulted from instability of chemical itself. The reaction was initiated by adding test compound at the final concentration of 2 μM and incubated at 37° C. Aliquots were taken from the incubation at 0, 15, 30, 45 and 60 minutes followed by the addition of 4 volume of cold acetonitrile containing internal standards. Samples were centrifuged and supernatant was used for LC-MS/MS analysis.

The target in series [2] is T1, Recombinant human LOXL2 (lysyl oxidase like 2) (Homo sapiens, UniProt Q9Y4K0).
T1 construct: purchased R&D systems
T1 sequence (Q9Y4K0 26-774): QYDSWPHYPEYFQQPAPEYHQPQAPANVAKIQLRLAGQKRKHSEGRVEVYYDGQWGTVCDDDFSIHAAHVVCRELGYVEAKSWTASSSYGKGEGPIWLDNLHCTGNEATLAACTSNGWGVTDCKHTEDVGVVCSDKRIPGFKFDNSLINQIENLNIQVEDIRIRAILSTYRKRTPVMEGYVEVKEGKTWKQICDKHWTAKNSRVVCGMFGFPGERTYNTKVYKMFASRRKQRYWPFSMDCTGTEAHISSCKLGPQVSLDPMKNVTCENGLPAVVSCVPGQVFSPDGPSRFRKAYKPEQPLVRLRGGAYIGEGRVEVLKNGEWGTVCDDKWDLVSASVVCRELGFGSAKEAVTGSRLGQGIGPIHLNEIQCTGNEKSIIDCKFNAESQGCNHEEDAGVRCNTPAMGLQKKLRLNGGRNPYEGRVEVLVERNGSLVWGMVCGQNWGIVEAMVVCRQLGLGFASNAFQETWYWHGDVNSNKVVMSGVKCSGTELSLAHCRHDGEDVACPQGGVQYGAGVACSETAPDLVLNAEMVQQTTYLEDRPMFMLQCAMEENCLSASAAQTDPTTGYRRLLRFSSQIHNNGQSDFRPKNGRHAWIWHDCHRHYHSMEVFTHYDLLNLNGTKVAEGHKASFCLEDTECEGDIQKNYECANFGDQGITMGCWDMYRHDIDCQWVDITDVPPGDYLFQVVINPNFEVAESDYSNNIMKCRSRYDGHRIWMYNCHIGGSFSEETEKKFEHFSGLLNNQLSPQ
Nature of the series: LOXL2 inhibition assay (fluorometric, cadaverine/Amplex Red/HRP). The format is biochemical. To be noted: IC50 class; recombinant human LOXL2, cadaverine substrate; read-out: Activity Range LOXL2. Put shortly: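 Both enzymes assayed in 1.2 M urea, 50 mM sodium borate pH 8.0, 10 mM CaCl, with 30 min compound–enzyme preincubation at 37° C before cadaverine/Amplex Red/HRP addition. Fluorescence followed 60 min at 37° C; linear-slope rates, background-subtracted, as % of DMSO control, fitted by 4-parameter variable-slope curve (bottom fixed at 0).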

Series [3] concerns the target T2, Recombinant human LOXL3 (lysyl oxidase like 3) (Homo sapiens, UniProt P58215).
T2 construct: purchased R&D systems
T2 sequence (P58215 26-753): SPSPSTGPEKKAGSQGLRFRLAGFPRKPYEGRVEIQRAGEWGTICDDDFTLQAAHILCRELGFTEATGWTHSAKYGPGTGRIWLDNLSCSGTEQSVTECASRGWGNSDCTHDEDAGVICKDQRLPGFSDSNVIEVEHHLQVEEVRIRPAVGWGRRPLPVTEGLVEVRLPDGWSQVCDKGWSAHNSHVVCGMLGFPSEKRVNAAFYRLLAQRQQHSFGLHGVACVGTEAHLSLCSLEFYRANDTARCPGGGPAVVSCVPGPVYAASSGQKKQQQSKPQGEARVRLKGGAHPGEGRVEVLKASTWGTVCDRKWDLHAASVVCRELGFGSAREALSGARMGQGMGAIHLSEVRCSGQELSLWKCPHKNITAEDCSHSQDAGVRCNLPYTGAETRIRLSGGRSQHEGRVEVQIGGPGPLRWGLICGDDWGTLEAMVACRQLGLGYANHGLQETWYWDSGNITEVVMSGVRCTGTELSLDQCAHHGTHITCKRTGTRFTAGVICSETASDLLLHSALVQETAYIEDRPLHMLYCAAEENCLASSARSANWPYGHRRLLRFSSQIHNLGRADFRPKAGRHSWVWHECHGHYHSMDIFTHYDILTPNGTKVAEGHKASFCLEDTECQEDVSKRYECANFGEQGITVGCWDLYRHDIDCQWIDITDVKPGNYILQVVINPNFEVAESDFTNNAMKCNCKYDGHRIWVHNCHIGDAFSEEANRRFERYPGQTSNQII
Nature of the series: LOXL3 inhibition assay (fluorometric, cadaverine/Amplex Red/HRP). The format is biochemical. To be noted: IC50 class; recombinant human LOXL3, cadaverine substrate; read-out: Activity Range LOXL3. The method, then:
The ability of compounds to inhibit one or more of the lysyl oxidases LOXL2 and/or LOXL3 was determined using a fluorometric assay. This assay measures the activity of lysyl oxidases by coupling the reaction with horseradish peroxidase-catalyzed […]. The activity assay protocol uses cadaverine as substrate that releases hydrogen peroxide upon transformation by the specific LOX family enzyme present in the sample. Hydrogen peroxide is in turn detected using a red fluorescence substrate for HRP-coupled reactions (Amplex Red Enzyme Assays, Thermo Scientific Fisher). This leads to increase in fluorescence that can be easily detected at Ex/Em=540/590 nm in a fluorescence microplate reader.
Enzymes: Recombinant human LOXL2 (lysyl oxidase like 2) and recombinant human LOXL3 (lysyl oxidase like 3) were purchased from R&D systems and assays were performed in 1.2 M urea, 50 mM sodium borate buffer pH 8.0, and 10 mM CaCl.
Reaction: Final concentration in the LOXL2 and LOXL3 assays were as following and performed in a total volume of […]:
Experimental procedure: 5 μl of freshly prepared reaction buffer were delivered to reaction wells. Compounds were resuspended in 100% DMSO at 10 mM and delivered into buffer using acoustic technology (Echo550; nanoliter range). A 3× solution of LOXL2 or LOXL3 in reaction buffer was prepared (“enzyme solution”) and 5 μL of enzyme solution was added into the reaction wells. Buffer only was added to column 1 for no protein control. Reactions were incubated for 30 minutes at 37° C. A 3×mixture of cadaverine, Amplex Red, and HRP (“Substrate/Detection Mix) was prepared and subsequently 5 μL of the mixture added to each reaction well. Progress of reactions was monitored for 60 minutes at 37° C. using Clariostar plate reader (ex 530-12, ems 600-40). For all activity assays, pan-LOX inhibitor CCT365623 (Tang et al, 2017) and LOXL2/LOXL3 inhibitor PAT-1251 (PharmaKea) were included as standards.
Data analysis: Slope of the linear portion of the progress curve was calculated using Clariostar software. Typical analysis interval was between 8-30 min, but varied between experiments. The background subtracted signals (No protein wells are considered as background) were converted to % activity relative to DMSO controls. Data was analyzed using GraphPad Prism 4 with “sigmoidal dose-response (variable slope)”; 4 parameters with Hill Slope. Constraints: Bottom=Constant equal to 0. Top=Must be less than 120.

Molecules are shown by their SMILES. Where only a bound is given, the exact number is not on record here.

In the case of `NCc1ccc(S(=O)(=O)N2C[C@H](C(=O)N3CCS(=O)(=O)CC3)C[C@@H](c3ccccc3)C2)s1.O=C(O)C(F)(F)F` (racemic) [Example 75B, trans-(1-((5-(Aminomethyl)thiophen-2-yl)sulfonyl)-5-phenylpiperidin-3-yl)(1,1-dioxidothiomorpholino)methanone 2,2,2-trifluoroacetate], in series [1], the half-life (as a rule, how long it takes for the measured level to halve) at 2 μM turned out to be 37.1 min; the microsomal CLint (commonly the capacity of the preparation to metabolise the compound, expressed as a volume cleared per time) at 2 μM is 37.3 µL/min/mg; the CLint scaled (usually the capacity of the preparation to metabolise the compound, expressed as a volume cleared per time) at 2 μM is 9.8 L/h/kg; the “Predicted hepatic CL” value was 3.481 L/h/kg. Also, the IC50 in series [2] is not above 0.5 µM.

For the compound `NCc1ccnc(S(=O)(=O)N2C[C@@H](C(=O)N3CCOCC3)C[C@@H](c3ccccc3)C2)c1` (relative stereo) [Example 133, cis-(1-((4-(Aminomethyl)pyridin-2-yl)sulfonyl)-5-phenylpiperidin-3-yl)(morpholino)methanone 2,2,2-trifluoroacetate], the IC50 in series [3] and in series [2] was not above 0.5 µM in each case.

On to `NCc1cccc(S(=O)(=O)N2C[C@@H](C(=O)N3CCS(=O)(=O)CC3)C[C@@H](C3CCCCC3)C2)c1` (racemic) [Example 140, cis-(1-((3-(Aminomethyl)phenyl)sulfonyl)-5-cyclohexylpiperidin-3-yl)(1,1-dioxidothiomorpholino)methanone], for which the IC50 in series [3] was 1 to 30 µM; in series [2], 0.5 to 1 µM.

Take `NCc1cccc(S(=O)(=O)N2C[C@@H](C(=O)N3CCOCC3)C[C@@H](C3CCCCC3)C2)c1` (racemic) [Example 139, cis-(1-((3-(Aminomethyl)phenyl)sulfonyl)-5-cyclohexylpiperidin-3-yl)(morpholino)methanone]: the results for the IC50 in series [3] and in series [2] were 1 to 30 µM and 0.5 to 1 µM, respectively.

Regarding `NCc1ccc(S(=O)(=O)N2C[C@H](C(=O)N3CCOCC3)C[C@H](c3ccccc3)C2)s1` [Example 13B, ((3R,5R)-1-((5-(aminomethyl)thiophen-2-yl)sulfonyl)-5-phenylpiperidin-3-yl)(morpholino)methanone], in series [1], the half-life at 2 μM came out at 79.7 min, the microsomal CLint at 2 μM stood at 17.4 µL/min/mg, the CLint scaled at 2 μM is 4.57 L/h/kg and the “Predicted hepatic CL” value was 2.474 L/h/kg. Besides, the IC50 in series [2] is not above 0.5 µM.

Take `NCc1ccnc(S(=O)(=O)N2C[C@@H](C(=O)N3CCS(=O)(=O)CC3)C[C@@H](c3ccccc3)C2)c1` (racemic) [Example 134, cis-(1-((4-(Aminomethyl)pyridin-2-yl)sulfonyl)-5-phenylpiperidin-3-yl)(1,1-dioxidothiomorpholino)methanone 2,2,2-trifluoroacetate]: the IC50 in series [3] and in series [2] was not above 0.5 µM throughout.

For the compound `NCc1ccnc(S(=O)(=O)N2C[C@H](C(=O)N3CCOCC3)C[C@H](c3ccccc3)C2)c1` [Example 133B, ((3R,5R)-1-((4-(aminomethyl)pyridin-2-yl)sulfonyl)-5-phenylpiperidin-3-yl)(morpholino)methanone 2,2,2-trifluoroacetate], the IC50 in series [3] and in series [2] was not above 0.5 µM in each case.

Regarding `NCc1cccc(S(=O)(=O)N2C[C@H](C(=O)N3CCS(=O)(=O)CC3)C[C@@H](c3ccccc3)C2)c1` (racemic) [Example 85, trans-(1-((3-(Aminomethyl)phenyl)sulfonyl)-5-phenylpiperidin-3-yl)(1,1-dioxidothiomorpholino)methanone 2,2,2-trifluoroacetate], the IC50 in series [3] was 1 to 30 µM; in series [2] it was not above 0.5 µM.

For the compound `CN(C)C(=O)[C@H]1C[C@@H](C2CCCCC2)CN(S(=O)(=O)c2cc(CN)ccn2)C1` (racemic) [Example 144, cis-1-((4-(Aminomethyl)pyridin-2-yl)sulfonyl)-5-cyclohexyl-N,N-dimethylpiperidine-3-carboxamide 2,2,2-trifluoroacetate], the IC50 in series [3] and in series [2] was not above 0.5 µM each time.

With `CS(=O)(=O)[C@@H]1C[C@@H](S(=O)(=O)c2cccc(CN)c2)CN(c2ccccc2)C1` (racemic) [Example 79, trans-(3-((-5-(Methylsulfonyl)-1-phenylpiperidin-3-yl)sulfonyl)phenyl)methanamine], the IC50 in series [3] is 1 to 30 µM; in series [2], not above 0.5 µM.

In the case of `CS(=O)(=O)N1CCN(C(=O)[C@H]2C[C@@H](c3ccccc3F)CN(S(=O)(=O)c3ccc(CN)s3)C2)CC1.O=C(O)C(F)(F)F` (racemic) [Example 91, cis-(1-((5-(Aminomethyl)thiophen-2-yl)sulfonyl)-5-(2-fluorophenyl)piperidin-3-yl)(4-(methylsulfonyl)piperazin-1-yl)methanone 2,2,2-trifluoroacetate], in series [1], the half-life at 2 μM was 24.5 min, the microsomal CLint at 2 μM was 56.5 µL/min/mg, the intrinsic metabolic clearance (CLint scaled) at 2 μM was 14.8 L/h/kg and the “Predicted hepatic CL” value is 3.959 L/h/kg. For the same compound, the IC50 in series [2] was not above 0.5 µM.

Turning to `NCc1ccc(S(=O)(=O)N2C[C@@H](C(=O)N3CCOCC3)C[C@@H](C3CCCCC3)C2)s1.O=C(O)C(F)(F)F` (racemic) [Example 120, cis-(1-((5-(Aminomethyl)thiophen-2-yl)sulfonyl)-5-cyclohexylpiperidin-3-yl)(morpholino)methanone 2,2,2-trifluoroacetate], in series [1], the half-life at 2 μM is 37 min, the microsomal CLint at 2 μM was 37.4 µL/min/mg, the CLint scaled at 2 μM was 9.82 L/h/kg and the “Predicted hepatic CL” value is 3.484 L/h/kg. Further, the IC50 in series [2] was not above 0.5 µM.
